The values below come from patent EP0283151A2, “Prostaglandins useful for lowering intraocular pressure” (ALLERGAN, INC, priority 1987, dated 1988).

Marks after values point to notes of the source that are not given here.

Experiment [1] is described as follows: IOP effects in conscious rabbits, applanation pneumatonometry. The format is in vivo, New Zealand-Dutch Belt cross rabbits. Also noted: IOP (Test): unit not given here. The conditions noted are these: for IOP (Test): treated eye; for concentration having the same effect in lowering intraocular pressure: solution applied to the eye. Here is the method:
(§1) The ocular hypotensive activity of these compounds was measured by applanation pneumatonometry.
The effect of 0.1 percent PGF2α on IOP versus 0.01% solution of the 9,11,15 triacetyl ester of PGF2α was measured in New Zealand-Dutch Belt cross rabbits. Intraocular pressure was measured by applanation pneumatonometry in conscious animals. Nine animals were used for each experiment. The data from this study as summarized in Table I show about a 10-fold difference in the activity of 9,11,15-triacetyl PGF2α compound over PGF2α.

A short description of experiment [2]: Duration of IOP-lowering action in cats after topical application. It is filed as in vivo. Set-up: unit not given here. Particulars: topical 0.1%, 25μL. Here is the method:
as §1
The duration of action of the triester (9,11,15-triacetyl ester) in comparison with that of the native PGF2α was tested in cats.

With `CCCCC[C@H](O)/C=C/[C@@H]1[C@@H](C/C=C\CCCC(=O)O)[C@@H](O)C[C@H]1O` [PGF2α, reference compound], the “IOP (Test)” value was determined as 21.67 in experiment [1] (rabbits, 0.1% solution, 0 hours); 23.00 in experiment [1] (rabbits, 0.1% solution, 0.5 hours); 24.00 in experiment [1] (rabbits, 0.1% solution, 1.0 hours); 24.35 in experiment [1] (rabbits, 0.1% solution, 1.5 hours); 22.67 in experiment [1] (rabbits, 0.1% solution, 2.0 hours); 20.92 in experiment [1] (rabbits, 0.1% solution, 2.5 hours). Besides, the “IOP (Test)” value is reported as 19.50* in experiment [1] (rabbits, 0.1% solution, 3.5 hours) and 20.75 in experiment [1] (rabbits, 0.1% solution, 4.5 hours). Further, in experiment [1], the “concentration having the same effect in lowering intraocular pressure” value was 0.1%. Besides, the “Test IOP” value in experiment [2] (0.0 hours) is 19.8; in experiment [2] (0.5 hours) it was 18.2; in experiment [2] (1.0 hours) it was 15.4*; in experiment [2] (2.0 hours) it was 14.5*; in experiment [2] (3.0 hours), 15.3*; in experiment [2] (4.0 hours) it was 16.7*. Besides, the results for the “Test IOP” value in experiment [2] (6.0 hours), in experiment [2] (24.0 hours) and in experiment [2] (-0.5 hours) were 21.5, 19.8 and 19.7, respectively.
Take `CCCCC[C@@H](/C=C/[C@H]1C(OC(C)=O)C[C@H](OC(C)=O)[C@@H]1C/C=C\CCCC(=O)O)OC(C)=O` (stereo partly drawn) [Triester, (5Z,9α,13E,15S)-9,11,15-triacetoxyprosta-5,13-dienoic acid]: the “IOP (Test)” value in experiment [1] (rabbits, 0.01% solution, 0 hours) is on record as 24.39; in experiment [1] (rabbits, 0.01% solution, 0.5 hours) it was 24.67; in experiment [1] (rabbits, 0.01% solution, 1.0 hours), 23.56; in experiment [1] (rabbits, 0.01% solution, 1.5 hours), 22.72*; in experiment [1] (rabbits, 0.01% solution, 2.0 hours), 21.33*; in experiment [1] (rabbits, 0.01% solution, 2.5 hours), 20.83*. For the same compound, the “IOP (Test)” value in experiment [1] (rabbits, 0.01% solution, 3.5 hours) is 22.22*; in experiment [1] (rabbits, 0.01% solution, 4.5 hours), 23.28. For the same compound, the “increase in potency in terms of lowering IOP compared to PGF2α” value in experiment [1] (rabbits, 0.01% triacetyl ester versus 0.1% PGF2α) is given as around 10 fold. In experiment [1], the “concentration having the same effect in lowering intraocular pressure” value worked out at 0.01%. Moreover, the “Test IOP” value in experiment [2] (0.0 hours) is 20.6; in experiment [2] (0.5 hours), 18.6; in experiment [2] (1.0 hours) it was 17.9*; in experiment [2] (2.0 hours), 17.0*; in experiment [2] (3.0 hours) it was 18.0*; in experiment [2] (4.0 hours), 17.8*. Moreover, the results for the “Test IOP” value in experiment [2] (6.0 hours), in experiment [2] (24.0 hours) and in experiment [2] (-0.5 hours) were 18.8*, 20.0* and 21.2, respectively.
